Entries after “also recorded” stand apart in the source; their conditions may differ.
Key:
[1] = Photostability of fluorescence in aqueous solution or ethanol (natural light, blue light); type: physicochemical; conditions: aqueous solution; for stability of fluorescence under irradiation with blue light: blue light for 2 hours; for photostability: fluorescence over time: natural light, up to 6 hours
Procedure: As a candidate material that can be applied to a fluorescent probe, to confirm how long fluorescence persists in materials with high fluorescence intensity in an aqueous solution among the indolizino[3,2-c]quinoline compounds, photostability according to time in an aqueous solution or ethanol solvent was evaluated as follows.
First, fluorescence of a corresponding material was measured using a cuvette, and the fluorescence per time for the cuvette sample was remeasured until 6 to 7 hours in a natural light state so as to confirm fluorescence stability.
Further, from the above example, when the indolizino[3,2-c]quinoline compounds including the IQ 3, 4, 6 and 8 compounds in which the fluorescence is stably maintained in an aqueous solution for approximately 6 hours are represented by Formula X, some materials in which neither A, B, C nor D ring has a substituent were selected and irradiated with blue light in an aqueous solution, and then a stability experiment was carried out to confirm the maintenance of the fluorescence.

[2] = target: Human Serum Albumin (HSA) (Homo sapiens, UniProt P02768); assay: Protein binding by fluorescence change (FRET, Job's plot, titration, quantum yield)
Human Serum Albumin (HSA), sequence (P02768 25-609): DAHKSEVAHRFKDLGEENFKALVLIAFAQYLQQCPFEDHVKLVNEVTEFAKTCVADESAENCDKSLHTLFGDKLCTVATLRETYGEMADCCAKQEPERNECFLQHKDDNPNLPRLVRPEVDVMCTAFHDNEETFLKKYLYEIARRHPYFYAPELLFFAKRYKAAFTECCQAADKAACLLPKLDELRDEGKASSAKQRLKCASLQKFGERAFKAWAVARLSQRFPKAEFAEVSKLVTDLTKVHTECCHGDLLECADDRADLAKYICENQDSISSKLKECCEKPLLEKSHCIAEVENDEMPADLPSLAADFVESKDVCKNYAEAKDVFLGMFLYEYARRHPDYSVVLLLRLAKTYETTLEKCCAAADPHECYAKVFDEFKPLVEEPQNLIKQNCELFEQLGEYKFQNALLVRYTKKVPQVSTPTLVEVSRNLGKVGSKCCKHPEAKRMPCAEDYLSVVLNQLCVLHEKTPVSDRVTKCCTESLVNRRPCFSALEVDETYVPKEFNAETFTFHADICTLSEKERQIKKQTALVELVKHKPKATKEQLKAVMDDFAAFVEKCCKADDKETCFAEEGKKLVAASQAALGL
Procedure: Using a fluorescence spectrophotometer, it was confirmed whether the indolizino[3,2-c]quinoline compound of the present invention binds to a protein. Specifically, among the indolizino[3,2-c]quinoline compounds, 13 types of compounds with high fluorescence in a Tris buffer (pH 7.5) were added to Bovine Serum Albumin (BSA) and Human Serum Albumin (HSA) to observe a fluorescence change.

HeLa cells = assay: Cell permeability: fluorescence imaging and live cell confocal imaging; type: cell-based
Procedure: HeLa cells were seeded in a 96-well plate and incubated for 24 hours. The cells were treated with the indolizino[3,2-c]quinoline compounds, and incubated at 37° C. under a 5% CO2 condition for 30 minutes. After removal of the medium, the cells were washed with 1×DPBS. The washed cells were fixed with 4% formaldehyde at room temperature for 10 minutes, and washed with 1×DPBS. A cell image was screened using an Operetta HTS imaging system (PerkinElmer).
After HeLa cells were seeded to account for 70 to 80% of the area of a confocal dish (SPL life science) and overnight cultured, the indolizino[3,2-c]quinoline compounds (10 μM) prepared by mixing fresh DMEM after removal of the existing DMEM medium were dispensed, and the cells were incubated for 30 minutes to 1 hour at 37° C. Afterward, if needed, LysoTracker (50 nM) was mixed with DMEM to remove the existing medium and then dispensed to the cells, and the cells were incubated for 30 minutes at 37° C. After incubation, without washing, the cells were examined by a confocal laser microscope (Leica TCS SP8 SMD, Leica, Mannheim, Germany). However, when co-stained with a LysoTracker, the cells were washed with DPBS twice before the microscopy. […]

[3] = Analysis of optical characteristics (absorption, fluorescence emission, quantum yield) in solvents; type: physicochemical; conditions: for Fluorescence Emission Intensity / Peak emission wavelength λmax em(nm) / Relative fluorescence Emission Intensitynorm: H2O at 2 μM; for Peak emission wavelength λmax em(nm): excited at the longest absorption maxima; for Relative fluorescence Emission Intensitynorm: normalized fluorescence intensity
Procedure: Fluorescence emission spectra were obtained at 20° C. using a JASCO FP-6500 spectrofluorometer, a 10 mM stock solution prepared by dissolving an indolizino[3,2-c]quinoline compound in DMSO was diluted in a solvent. […] Absorption spectra were recorded at room temperature using a Perkin Elmer Lamda 20 UV/VIS spectrometer. […]
Further, the compounds (excluding Entry #51-57, etc.) of Formula 1 were subjected to spectrum analyses in various solvents, and the results are shown in Tables 6 and 7, and FIGS. 5C and 5D.

[4] = tested on: DNA oligomers (48 bp) tetO sequences; assay: Binding to DNA by fluorescence spectrophotometer; conditions: hybridized tetO DNA oligomers added, 1 minute incubation
Procedure: Using a fluorescence spectrophotometer, it was confirmed whether the indolizino[3,2-c]quinoline compound of the present invention binds to DNA. First, DNA oligomers (48 bp) used in the experiment are tetO sequences, and the base sequences thereof are as follows.
The same molarities of oligomers were mixed while being heated at 95° C. for 5 minutes and cooled to room temperature for 2 hours to hybridize, the fluorescence of each of the indolizino[3,2-c]quinoline compounds of the present invention was measured, a corresponding equivalent of DNA oligomer was added to a cuvette, and then incubated while blocking light for 1 minute to measure fluorescence again.

SMILES: Cc1ccc(-c2nc3ccccc3c3cc4ccccn4c23)cc1 [IQ 3, 6-(p-tolyl)indolizino[3,2-c]quinoline]
- stability of fluorescence under irradiation with blue light [1]: still stably exhibited fluorescence intensity
- photostability: fluorescence over time [1]: stably maintained in an aqueous solution up to 6 hours with almost no change
- fluorescence change on binding to HSA [2]: increasing fluorescence intensity

SMILES: c1ccc(-c2nc3ccccc3c3cc4ccccn4c23)cc1 [IQ 4, 6-phenylindolizino[3,2-c]quinoline]
- stability of fluorescence under irradiation with blue light [1]: still stably exhibited fluorescence intensity
- photostability: fluorescence over time [1]: stably maintained in an aqueous solution up to 6 hours with almost no change
- fluorescence change on binding to HSA [2]: increasing fluorescence intensity

SMILES: c1ccc(-c2nc3ccccc3c3cc4ccccn4c23)nc1 [IQ 5, 6-(pyridin-2-yl)indolizino[3,2-c]quinoline]
- stability of fluorescence under irradiation with blue light [1]: still stably exhibited fluorescence intensity

SMILES: COc1cc(OC)cc(-c2nc3ccccc3c3cc4ccccn4c23)c1 [IQ 7, 6-(3,5-Dimethoxyphenyl)indolizino[3,2-c]quinoline]
- intracellular organelles in which fluorescence is detected (HeLa cells; HeLa cells): stained intensively in the nuclear area
- fluorescence change on binding to HSA [2]: fluorescence intensity became higher than the fluorescence of the material; also recorded: increasing fluorescence intensity
- quantum yield (QY) when bound to HSA [2]: 0.43
- emission after adding 1 equiv. of the compound to HSA ([2]; excited at 280 nm): approximately 450 nm
- emission of the compound ([2]; excited at 280 nm): approximately 500 nm
- FRET with HSA ([2]; excited at 280 nm, 1 equiv. of compound): fluorescence resonance energy transfer (FRET) phenomenon occurred
- Kd ([2]; titration): 1890 nM

SMILES: COc1ccc(-c2nc3ccccc3c3cc4ccccn4c23)cc1OC [IQ 8, 6-(3,4-dimethoxyphenyl)indolizino[3,2-c]quinoline]
- intracellular organelles in which fluorescence is detected (HeLa cells; HeLa cells): stained intensively in the nuclear area
- photostability: fluorescence over time [1]: stably maintained in an aqueous solution up to 6 hours with almost no change
- fluorescence change on binding to HSA [2]: increasing fluorescence intensity

SMILES: c1ccc2c(-c3nc4ccccc4c4cc5ccccn5c34)cccc2c1 [IQ 9, 6-(naphthalen-1-yl)indolizino[3,2-c]quinoline]
- fluorescence (intensity, in words) [3]: strong fluorescence
- solvent-dependent (environment-sensitive) tendency of the emission [3]: solvatochromic effect
- peak emission (λmax) ([3]; aqueous solution (H2O)): 465.5 nm
- peak emission (λmax) ([3]; ethanol solvent (EtOH)): 516 nm
- quantum yield ([3]; in ethanol using coumarin 153 as a standard): 0.402
- fluorescence change on binding to HSA [2]: increasing fluorescence intensity

SMILES: c1ccc2cc(-c3nc4ccccc4c4cc5ccccn5c34)ccc2c1 [IQ 10, 6-(naphthalen-2-yl)indolizino[3,2-c]quinoline]
- fluorescence change on binding to HSA [2]: increasing fluorescence intensity

SMILES: COc1ccc(-c2nc3ccccc3c3cc4c(C)cccn4c23)cc1OC [IQ 17, 6-(3,4-dimethoxyphenyl)-11-methylindolizino[3,2-c]quinoline]
- intracellular molecule recognized (HeLa cells; HeLa cells): recognized DNA
- intracellular organelles in which fluorescence is detected (HeLa cells; HeLa cells): stained intensively in the nuclear area
- fluorescence change on binding to HSA [2]: increasing fluorescence intensity
- quantum yield (QY) when bound to HSA [2]: 0.4

SMILES: COc1ccc(-c2nc3ccccc3c3c(Cl)c4ccccn4c23)cc1 [IQ 40, 12-chloro-6-(4-methoxyphenypindolizino[3,2-c]quinoline]
- fluorescence change on binding to HSA [2]: increasing fluorescence intensity

SMILES: COc1ccc(-c2nc3ccccc3c3cc4cc(-c5ccc(N(C)C)cc5)ccn4c23)cc1 [IQ-B37, 4-(6-(4-methoxyphenyl)indolizino[3,2-c]quinolin-10-yl)-N,N-dimethylaniline]
- detection with yellow and red wavelength filters (HeLa cells; live HeLa cells, ex 514 nm, em 519 nm and ex 561 nm, em 566 nm): detected
- λex(nm) ([3]; Table 7): 432 nm

SMILES: COc1ccc(-c2nc3ccccc3c3cc4c(C)cccn4c23)cc1OC [compound 17]
- shift of maximum emission wavelength on addition of DNA oligomer [4]: wavelength to longer wavelength
- Maximum absorption wavelength λmax abs(nm) [3]: 391 nm
- quantum yield (Φ) ([3]; DW, standard Rhodamine 6G): 0.065
- quantum yield (Φ) ([3]; EtOH, standard Coumarin 153): 0.604
- Fluorescence Emission Intensity [3]: 31.7
- Peak emission wavelength λmax em(nm) [3]: 524.5 nm
- Relative fluorescence Emission Intensitynorm [3]: 0.14

SMILES: Cc1cccn2c1cc1c3ccccc3nc(-c3ccco3)c12 [compound 18]
- shift of maximum emission wavelength on addition of DNA oligomer [4]: wavelength to shorter wavelength
- Maximum absorption wavelength λmax abs(nm) [3]: 400 nm
- quantum yield (Φ) ([3]; DW, standard Rhodamine 6G): 0.008
- quantum yield (Φ) ([3]; EtOH, standard Coumarin 153): 0.421
- Fluorescence Emission Intensity [3]: 15.0
- Peak emission wavelength λmax em(nm) [3]: 523.5 nm
- Relative fluorescence Emission Intensitynorm [3]: 0.06

SMILES: COC(=O)c1c2c3ccccc3nc(-c3cc(OC)cc(OC)c3)c2n2ccccc12 [compound 19]
- shift of maximum emission wavelength on addition of DNA oligomer [4]: wavelength to shorter wavelength
- quantum yield (Φ) ([3]; DW, standard Rhodamine 6G): 0.060
- quantum yield (Φ) ([3]; EtOH, standard Coumarin 153): 0.222
- Fluorescence Emission Intensity [3]: 80.5
- Peak emission wavelength λmax em(nm) [3]: 478 nm
- Relative fluorescence Emission Intensitynorm [3]: 0.35

SMILES: CN(C)c1ccc(-c2nc3ccccc3c3cc4ccccn4c23)cc1 [compound 36]
- shift of maximum emission wavelength on addition of DNA oligomer [4]: wavelength to longer wavelength
- quantum yield (Φ) ([3]; DW, standard Rhodamine 6G): 0.006
- quantum yield (Φ) ([3]; EtOH, standard Coumarin 153): 0.386

SMILES: CCN(CC)c1ccc(-c2nc3ccccc3c3cc4ccccn4c23)cc1 [compound 37]
- shift of maximum emission wavelength on addition of DNA oligomer [4]: wavelength to longer wavelength
- quantum yield (Φ) ([3]; DW, standard Rhodamine 6G): 0.001
- quantum yield (Φ) ([3]; EtOH, standard Coumarin 153): 0.324

SMILES: COc1ccc(-c2nc3ccccc3c3c(Cl)c4ccccn4c23)cc1 [compound 40]
- change in fluorescence intensity on addition of DNA oligomer [4]: Increase in fluorescence intensity
- quantum yield (Φ) ([3]; DW, standard Rhodamine 6G): 0.142
- quantum yield (Φ) ([3]; EtOH, standard Coumarin 153): 0.624

SMILES: c1csc(-c2nc3ccccc3c3cc4ccccn4c23)c1 [compound 42]
- shift of maximum emission wavelength on addition of DNA oligomer [4]: wavelength to shorter wavelength

SMILES: COC(=O)c1c2c3ccccc3nc(-c3cccs3)c2n2ccccc12 [compound 44]
- shift of maximum emission wavelength on addition of DNA oligomer [4]: wavelength to shorter wavelength
- quantum yield (Φ) ([3]; DW, standard Rhodamine 6G): 0.010
- quantum yield (Φ) ([3]; EtOH, standard Coumarin 153): 0.050

SMILES: COc1ccc(-c2nc3ccccc3c3c(-c4ccc(F)cc4)c4ccccn4c23)cc1 [compound 45]
- change in fluorescence intensity on addition of DNA oligomer [4]: No change in fluorescence intensity
- quantum yield (Φ) ([3]; DW, standard Rhodamine 6G): 0.033
- quantum yield (Φ) ([3]; EtOH, standard Coumarin 153): 0.557

SMILES: COc1ccc(-c2nc3ccccc3c3c(-c4ccc(Cl)cc4)c4ccccn4c23)cc1 [compound 46]
- change in fluorescence intensity on addition of DNA oligomer [4]: No change in fluorescence intensity
- quantum yield (Φ) ([3]; DW, standard Rhodamine 6G): 0.039
- quantum yield (Φ) ([3]; EtOH, standard Coumarin 153): 0.604
